Read-outs that look alike come from different tables or passages of the source.
Legend:
[1] = biological target: T1, h P2X3 (Homo sapiens, UniProt P56373); experiment: In vitro electrophysiology assay for P2X3 (automated whole-cell patch clamp, α,β-MeATP agonist); format: cell-based; details: 800 nM α,β-MeATP, peak current, read-out: h P2X3 (pIC50 range of activity) (converted)
T1 sequence (P56373 1-397): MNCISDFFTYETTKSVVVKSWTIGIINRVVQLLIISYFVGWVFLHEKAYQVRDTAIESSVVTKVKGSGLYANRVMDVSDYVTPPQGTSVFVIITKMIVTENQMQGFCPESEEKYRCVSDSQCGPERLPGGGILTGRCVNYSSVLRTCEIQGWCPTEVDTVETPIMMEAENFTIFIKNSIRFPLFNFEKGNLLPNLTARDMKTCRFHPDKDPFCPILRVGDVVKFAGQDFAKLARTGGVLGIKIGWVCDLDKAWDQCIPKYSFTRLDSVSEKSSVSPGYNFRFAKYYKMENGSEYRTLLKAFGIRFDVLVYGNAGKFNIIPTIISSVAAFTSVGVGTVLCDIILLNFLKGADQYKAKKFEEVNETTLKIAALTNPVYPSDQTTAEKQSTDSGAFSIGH
How it was run: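 Automated whole-cell patch clamp of P2X3-expressing cells at −60 mV, room temperature, pH 7.4 bath with CsF internal solution. Antagonist preincubated 10 min, then co-applied with 800 nM α,β-MeATP; peak current inhibition versus second agonist response, ten concentrations, IC50 from four-parameter fit.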

[2] = biological target: T2, h P2X2/3 (Homo sapiens, UniProt P56373+Q9UBL9); experiment: In vitro electrophysiology assay for P2X2/3 (same protocol, 10 μM ATP agonist); format: cell-based; details: Table 3, mean current seven seconds after agonist, read-out: h P2X2/3 (pIC50 range of activity) (converted)
T2 construct: host or cells: cells not described; same protocol as the P2X3 assay
T2 sequence (P56373 1-397): T1 sequence (P56373 1-397)
T2 sequence (Q9UBL9 1-471): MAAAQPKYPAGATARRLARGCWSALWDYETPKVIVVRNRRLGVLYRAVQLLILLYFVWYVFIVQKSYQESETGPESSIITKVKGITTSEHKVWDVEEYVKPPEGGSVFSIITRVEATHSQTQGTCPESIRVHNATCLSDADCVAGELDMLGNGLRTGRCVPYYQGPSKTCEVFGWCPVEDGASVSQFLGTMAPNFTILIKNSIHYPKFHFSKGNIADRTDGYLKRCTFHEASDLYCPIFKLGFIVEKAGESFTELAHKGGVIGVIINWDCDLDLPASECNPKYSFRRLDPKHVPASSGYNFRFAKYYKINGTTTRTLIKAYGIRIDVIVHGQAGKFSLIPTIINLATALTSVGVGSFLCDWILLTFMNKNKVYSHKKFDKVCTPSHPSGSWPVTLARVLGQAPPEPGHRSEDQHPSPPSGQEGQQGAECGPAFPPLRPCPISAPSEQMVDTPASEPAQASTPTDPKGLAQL
Description: Cells expressing P2X3 receptors were grown according to standard practice and maintained at 37° C. in a 5% humidified CO2 atmosphere. The cells were seeded into T175 flask 2 days prior to the day of the assay and dissociated from the flasks using TrypLE when grown to confluence of 80-90%. The dissociated cells were resuspended in serum free media at a cell density of 3×10^6 cells/ml and loaded onto the Sophion Qube automated patch-clamp system. The extracellular assay buffer contained 145 mM NaCl, 4 mM KCl, 2 mM CaCl2, 1 mM MgCl2, 10 mM HEPES, and 10 mM glucose at pH 7.4. The intracellular assay solution contained 140 mM CsF, 10 mM NaCl, 10 mM EGTA, 10 mM HEPES at pH 7.2. Agonist stock solutions were prepared in H2O and diluted in bath solution prior to use. All antagonists were prepared as 10 mM stock solutions in DMSO and diluted in bath solution prior to use. All experiments were performed under the whole-cell patch clamp configuration at room temperature with 384 individual cells being voltage clamped at −60 mV simultaneously on the Sophion Qube instrument. Two baseline responses were established with the application of α,β-MeATP (800 nM), with the subsequent agonist applications being washed out using extracellular assay buffer containing 0.5 U/ml apyrase. Following the second agonist application, antagonist was incubated in the absence of α,β-MeATP for 10 minutes. After antagonist preincubation, 800 nM α,β-MeATP and antagonist were co-administered to determine the inhibitory effect of the antagonist. One concentration of an antagonist was assessed against a single cell, with different concentrations of the antagonist applied to other cells on the 384 recording substrate. The control P2X3 current amplitude was taken from the peak current amplitude from the second agonist response prior to preincubation with antagonist. The peak P2X3 current amplitude in the presence of antagonist was used to calculate the inhibitory effect at each concentration of the antagonist according to the following equation: […]
In vitro Electrophysiology Assay for P2X2/3
Representative compound of the present invention have been also tested for P2X2/3 receptor.
The same assay protocol was used for the P2X2/3 assay as the P2X3 assay with two modifications: 1) 10 μM ATP was used as the agonist; and 2) the mean current amplitude was measured seven seconds after the application of agonist.

IC50 ([1]; Table 2) [nM]	IC50 ([1]; Table 3) [nM]	IC50 [2] [µM]	SMILES
< 316	< 316	3.16 to 31.6	CNS(=O)(=O)c1cc(-c2ccc(F)cc2)cc2c(N[C@H](C)c3ccc(C)nn3)ncnc12 [Example 21, (R)-6-(4-fluorophenyl)-N-methyl-4-((1-(6-methylpyridazin-3-yl)ethyl)amino)quinazoline-8-sulfonamide]
< 316	< 316	3.16 to 31.6	CNS(=O)(=O)c1cc(-c2ccc(F)cc2)cc2c(N[C@H](C)c3noc(C)n3)ncnc12 [Example 22, (R)-6-(4-fluorophenyl)-N-methyl-4-((1-(5-methyl-1,2,4-oxadiazol-3-yl)ethyl)amino)quinazoline-8-sulfonamide]
< 316	< 316	0.316 to 3.16	C[C@@H](Nc1ncnc2c(OC3CCNC3=O)cc(-c3ccc(F)cc3)cc12)c1cnc(C(F)(F)F)nc1 (stereo partly drawn) [Example 34, 3-((6-(4-fluorophenyl)-4-(((R)-1-(2-(trifluoromethyl)pyrimidin-5-yl)ethyl)amino)quinazolin-8-yl)oxy)pyrrolidin-2-one]
< 316	< 316	0.316 to 3.16	Cc1nc([C@@H](C)Nc2ncnc3c(S(=O)(=O)N4CCC(F)(F)C4)cc(-c4ccc(F)cc4)cc23)no1 [Example 17, (R)-8-((3,3-difluoropyrrolidin-1-yl)sulfonyl)-6-(4-fluorophenyl)-N-(1-(5-methyl-1,2,4-oxadiazol-3-yl)ethyl)quinazolin-4-amine]
< 316	< 316	3.16 to 31.6	Cc1ccc(CNc2ncnc3c(OCC(F)F)cc(-c4ccc(F)cc4)cc23)nn1 [Example 1, 8-(2,2-difluoroethoxy)-6-(4-fluorophenyl)-N-((6-methylpyridazin-3-yl)methyl)quinazolin-4-amine]
316 to 3160	316 to 3160	3.16 to 31.6	COC(=O)C1(NC(=O)COc2cc(-c3ccc(F)cc3)cc3c(NCc4ccc(C)nn4)ncnc23)CC1 [Example 42, Methyl 1-(2-((6-(4-fluorophenyl)-4-(((6-methylpyridazin-3-yl)methyl)amino)quinazolin-8-yl)oxy)acetamido)cyclopropane-1-carboxylate]
< 316	< 316	0.316 to 3.16	Cc1ccc(CNc2ncnc3c(OCc4nnc(C5CC5)o4)cc(-c4ccc(F)cc4)cc23)nn1 [Example 62, 8-((5-cyclopropyl-1,3,4-oxadiazol-2-yl)methoxy)-6-(4-fluorophenyl)-N-((6-methylpyridazin-3-yl)methyl)quinazolin-4-amine]
< 316	< 316	0.316 to 3.16	Cc1ccc([C@@H](C)Nc2ncnc3c(S(=O)(=O)N4CCC(F)(F)C4)cc(-c4ccc(F)cc4)cc23)nn1 [Example 16]
316 to 3160	316 to 3160	3.16 to 31.6	COC(=O)N1CCC(Oc2cc(-c3ccc(F)cc3)cc3c(NCc4ccc(C)nn4)ncnc23)C1 (stereo not drawn) [Example 68, Methyl 3-[6-(4-fluorophenyl)-4-[(6-methylpyridazin-3-yl)methylamino]quinazolin-8-yl]oxypyrrolidine-1-carboxylate]
< 316	< 316	0.316 to 3.16	C[C@@H](Nc1ncnc2c(OCC(F)F)cc(-c3ccc(F)cc3)cc12)c1cnc(C(F)(F)F)nc1 [Example 2, (R)-8-(2,2-difluoroethoxy)-6-(4-fluorophenyl)-N-(1-(2-(trifluoromethyl)pyrimidin-5-yl)ethyl)quinazolin-4-amine]
< 316	< 316	3.16 to 31.6	Cc1nnc(C(C)Nc2ncnc3c(OCC(F)F)cc(-c4ccc(F)cn4)cc23)s1 (single isomer, unassigned; enantiomer 1) [Example 6, Single enantiomer 1 of 8-(2,2-difluoroethoxy)-6-(5-fluoro-2-pyridyl)-N-[1-(5-methyl-1,3,4-thiadiazol-2-yl)ethyl]quinazolin-4-amine]

Source: patent publication US20240025880A1 (CHIESI FARMACEUTICI S.P.A., priority 2020, published 2024)
